The assay has as its target T1, ADAMTS-5 MDTCS (Homo sapiens, UniProt Q9UNA0).
T1 construct: ADAMTS-5 MDTCS (lacking the C-terminal TS motif but retaining full versicanase activity); made in house; host or cells: HEK293T
T1 sequence (Q9UNA0 262-874 limits assumed): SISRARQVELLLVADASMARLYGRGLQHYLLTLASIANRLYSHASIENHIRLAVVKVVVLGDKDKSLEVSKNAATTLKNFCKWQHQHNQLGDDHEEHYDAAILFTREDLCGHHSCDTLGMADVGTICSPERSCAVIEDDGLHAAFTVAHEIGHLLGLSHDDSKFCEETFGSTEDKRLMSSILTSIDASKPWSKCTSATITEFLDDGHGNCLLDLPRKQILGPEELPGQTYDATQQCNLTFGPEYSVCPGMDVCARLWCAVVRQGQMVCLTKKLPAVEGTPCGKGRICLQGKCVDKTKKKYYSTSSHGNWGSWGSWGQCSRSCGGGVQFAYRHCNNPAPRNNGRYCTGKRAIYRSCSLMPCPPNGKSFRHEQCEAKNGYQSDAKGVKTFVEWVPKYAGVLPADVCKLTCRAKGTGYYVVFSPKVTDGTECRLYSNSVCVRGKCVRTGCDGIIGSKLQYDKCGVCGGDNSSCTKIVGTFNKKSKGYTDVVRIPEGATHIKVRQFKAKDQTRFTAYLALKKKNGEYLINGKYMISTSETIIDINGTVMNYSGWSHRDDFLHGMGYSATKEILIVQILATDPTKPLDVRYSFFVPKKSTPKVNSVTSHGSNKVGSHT
Briefly: Dual inhibition study (GM6001 with or without 4b, QF peptide cleavage). The class given is biochemical. How it is done: Figure 3 Compound 4b binds to the ADAMTS-5 Mp/Dis domains in the presence of GM6001. (A, B) Compound 4b inhibits versicanase activity of both full-length (FL) ADAMTS-5 and its variant containing only the Mp/Dis domains (ADAMTS-5 MD). Compound 4b (100 μM) or DMSO was incubated either with ADAMTS-5 FL (0.2 nM, A) or ADAMTS-5 MD (26 nM, B) for 2 h at 37 °C before addition of V1-5GAG (50 nM). At each time point, reactions were stopped by addition of EDTA and versikine fragments quantified by sandwich ELISA as reported in the Methods section. In the DMSO control, complete proteolysis was achieved after 7200 s. […]
QF peptide cleavage assays were conducted in 96-well black microtiter plates (Scientific Laboratories Supplies Ltd, Wilford, UK) using a Fluostar Omega microplate reader (BMG Labtech, Aylesbury, UK). The activity of ADAMTS-4 (1 nM) and -5 (5 nM) was monitored for 2 h using the fluorescent peptide substrates fluorescein 5(6)-carbonyl-Ala-Glu-Leu-[…]-Gly-Arg-Pro-Ile-Ser-Ile-Ala-Lys-N,N,N0,N0-tetramethyl-6-carboxyrhodamine-NH2 (FAM-AE ~ LQGRPISIAK-TAMRA, ADAMTS-4) and fluorescein 5(6)-carbonyl-Thr-Glu-Ser-Glu ~ Ser-Arg-Gly-Ala-Ile-Tyr-Lys-Lys-N,N,N0,N0-tetramethyl-6-carboxyrhodamine-NH2 (FAM-TESE ~ SRGAIYKK-TAMRA, ADAMTS-5) (custom-synthesized by Bachem, Bubendorf, Switzerland) with an excitation wavelength of 485 nm and an emission wavelength of 538 nm. […]

Each structure is given as a SMILES string.

Take `CNC(=O)[C@H](Cc1c[nH]c2ccccc12)NC(=O)[C@@H](CC(=O)NO)CC(C)C` [GM6001]: the IC50 (QF peptide, DMSO, no 4b, read-out: IC50^− (in the absence of 4b)) is 0.37 ± 0.09 µM. Besides, the “IC50^+/IC50^−” value (ratio with/without 10 μM 4b, < 1 synergistic) is on record as 0.043.

Usually IC50 stands for the point on the concentration scale where inhibition reaches its midpoint.

The values above are taken from paper PMC7806935, “Exosite inhibition of ADAMTS-5 by a glycoconjugated arylsulfonamide” (Scientific Reports, 2021).
